Literature values as cited in US6645930B1, “Clean room wipes for neutralizing caustic chemicals” (EKC Technology, Inc., priority 2000, dated 2003).

Tests used:
[1] = for pKa3: third ionization constant; for pKa1: first ionization constant
[2] = at 25° C.

pKa2 ([1]; second ionization constant) | vapor pressure [2] [kPascal] | SMILES | pKa3 [1] | pKa1 [1]
– | – | O=C(O)CC(O)(CC(=O)O)C(=O)O [Citric, citric acid] | 6.9 | –
– | – | O=C(O)c1cc(O)c(O)c(O)c1 [Gallic, gallic acid] | 8.9 | 4.2
4.7 | – | O=C(O)[C@H](O)[C@@H](O)[C@H](O)[C@H](O)CO [Gluconic, gluconic acid] | – | 3.5
– | 0.02 | CC(O)CO (stereo not drawn) [propylene glycol] | – | –
